Test results from ChEMBL document CHEMBL1764997, “(Z)-3-butylidenephthalide from Ligusticum porteri , an α-glucosidase inhibitor” (J Nat Prod, 2011).
Active and inactive are the calls of the source. The calls are words filed in the database; no cut-off is given here.

Assays:
[1] = biological target: Alpha-glucosidase MAL62 (Saccharomyces cerevisiae) (UniProt P07265); experiment: Inhibition of yeast alpha-glucosidase assessed as inhibition of p-nitrophenyl-alpha-D-glucopyranoside substrate hydrolysis after 35 mins by spectroscopy
Sequence of Alpha-glucosidase MAL62 (Saccharomyces cerevisiae) (P07265 whole entry): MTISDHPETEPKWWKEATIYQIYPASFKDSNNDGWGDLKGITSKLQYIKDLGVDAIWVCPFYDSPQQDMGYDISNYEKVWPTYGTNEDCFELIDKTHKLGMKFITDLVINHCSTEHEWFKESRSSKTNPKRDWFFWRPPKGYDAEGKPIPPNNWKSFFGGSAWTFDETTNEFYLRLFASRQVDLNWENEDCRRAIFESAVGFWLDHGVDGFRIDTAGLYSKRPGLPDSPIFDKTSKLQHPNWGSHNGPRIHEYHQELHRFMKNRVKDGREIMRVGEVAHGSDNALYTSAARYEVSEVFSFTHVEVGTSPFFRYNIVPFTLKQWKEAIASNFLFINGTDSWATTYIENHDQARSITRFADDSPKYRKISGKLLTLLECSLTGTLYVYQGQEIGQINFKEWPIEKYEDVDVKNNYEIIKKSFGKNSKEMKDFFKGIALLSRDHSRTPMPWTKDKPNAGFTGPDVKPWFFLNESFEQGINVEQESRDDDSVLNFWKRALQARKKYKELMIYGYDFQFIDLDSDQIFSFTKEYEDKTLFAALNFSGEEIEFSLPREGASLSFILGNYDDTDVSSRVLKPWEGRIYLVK

Mus musculus [2] = experiment: Antihyperglycemic activity in ICR mouse assessed as change in blood glucose level at 10 mg/kg after 2 hrs by oral glucose tolerance test (RVb= -12 %); type: functional
Mus musculus [3] = experiment: Antidiabetic activity in streptozotocin-induced diabetic ICR mouse assessed as change in blood glucose level at 10 mg/kg after 0.5 hr by oral glucose tolerance test (RVb= 51.9 %); type: functional
Mus musculus [4] = experiment: Antidiabetic activity in streptozotocin-induced diabetic ICR mouse assessed as change in blood glucose level at 10 mg/kg after 2 hrs by oral glucose tolerance test (RVb= -12.9 %); type: functional
Mus musculus [5] = experiment: Antihyperglycemic activity in ICR mouse assessed as change in blood glucose level at 10 mg/kg after 1.5 hrs by oral glucose tolerance test (RVb= 2.5 %); type: functional
Mus musculus [6] = experiment: Antihyperglycemic activity in ICR mouse assessed as change in blood glucose level at 10 mg/kg after 1 hr by oral glucose tolerance test (RVb= 1.5 %); type: functional
Mus musculus [7] = experiment: Antidiabetic activity in streptozotocin-induced diabetic ICR mouse assessed as change in blood glucose level at 10 mg/kg after 1.5 hrs by oral glucose tolerance test (RVb= 0.005 %); type: functional
Mus musculus [8] = experiment: Antidiabetic activity in streptozotocin-induced diabetic ICR mouse assessed as change in blood glucose level at 10 mg/kg after 1 hr by oral glucose tolerance test (RVb= 10.3 %); type: functional
Mus musculus [9] = experiment: Antihyperglycemic activity in ICR mouse assessed as change in blood glucose level at 10 mg/kg after 0.5 hr by oral glucose tolerance test (RVb= 59 %); type: functional
Mus musculus [10] = experiment: Antihyperglycemic activity in ICR mouse assessed as change in blood glucose level at 20 mg/kg after 0.5 hr by oral glucose tolerance test (RVb= 59 %); type: functional
Mus musculus [11] = experiment: Antihyperglycemic activity in ICR mouse assessed as change in blood glucose level at 20 mg/kg after 1.5 hrs by oral glucose tolerance test (RVb= 2.5 %); type: functional
Mus musculus [12] = experiment: Antidiabetic activity in streptozotocin-induced diabetic ICR mouse assessed as change in blood glucose level at 31.2 mg/kg after 0.5 hr by oral glucose tolerance test (RVb= 51.9 %); type: functional
Mus musculus [13] = experiment: Antidiabetic activity in streptozotocin-induced diabetic ICR mouse assessed as change in blood glucose level at 31.2 mg/kg after 1 hr by oral glucose tolerance test (RVb= 10.3 %); type: functional
Mus musculus [14] = experiment: Antidiabetic activity in streptozotocin-induced diabetic ICR mouse assessed as change in blood glucose level at 31.2 mg/kg after 2 hrs by oral glucose tolerance test (RVb= -12.9 %); type: functional
Mus musculus [15] = experiment: Antidiabetic activity in streptozotocin-induced diabetic ICR mouse assessed as change in blood glucose level at 56.2 mg/kg after 1.5 hrs by oral glucose tolerance test (RVb= 0.005 %); type: functional
Mus musculus [16] = experiment: Antidiabetic activity in streptozotocin-induced diabetic ICR mouse assessed as change in blood glucose level at 56.2 mg/kg after 2 hrs by oral glucose tolerance test (RVb= -12.9 %); type: functional
Mus musculus [17] = experiment: Antidiabetic activity in streptozotocin-induced diabetic ICR mouse assessed as change in blood glucose level at 31.2 mg/kg after 1.5 hrs by oral glucose tolerance test (RVb= 0.005 %); type: functional
Mus musculus [18] = organism: Mus musculus; experiment: Antidiabetic activity in streptozotocin-induced diabetic ICR mouse assessed as decrease in blood glucose levels by oral glucose tolerance test
Mus musculus [19] = experiment: Antihyperglycemic activity in ICR mouse assessed as change in blood glucose level at 20 mg/kg after 1 hr by oral glucose tolerance test (RVb= 1.5 %); type: functional
Mus musculus [20] = experiment: Antidiabetic activity in streptozotocin-induced diabetic ICR mouse assessed as change in blood glucose level at 56.2 mg/kg after 1 hr by oral glucose tolerance test (RVb= 10.3 %); type: functional
Mus musculus [21] = experiment: Antihyperglycemic activity in ICR mouse assessed as change in blood glucose level at 20 mg/kg after 2 hrs by oral glucose tolerance test (RVb= -12 %); type: functional
Mus musculus [22] = experiment: Antidiabetic activity in streptozotocin-induced diabetic ICR mouse assessed as change in blood glucose level at 56.2 mg/kg after 0.5 hr by oral glucose tolerance test (RVb= 51.9 %); type: functional

| Structure (SMILES) | Activity [1] | Activity (Mus musculus [2]) | Activity (Mus musculus [3]) | Activity (Mus musculus [4]) | Activity (Mus musculus [5]) | Activity (Mus musculus [6]) | Activity (Mus musculus [7]) | Activity (Mus musculus [8]) | Activity (Mus musculus [9]) | further results |
| --- | --- | --- | --- | --- | --- | --- | --- | --- | --- | --- |
| C=CCc1cc(OC)c2c(c1)OCO2 | inactive | – | – | – | – | – | – | – | – | – |
| COc1ccc(Cl)cc1C(=O)NCCc1ccc(S(=O)(=O)NC(=O)NC2CCCCC2)cc1 [GLYBURIDE] | – | -68% | 42% | -21.5% | -69% | -65% | -10% | 3.8% | -42% | – |
| CCC/C=C1\OC(=O)C2=C1CCC=C2 [LIGUSTILIDE] | inactive | -8% | 13% | -15.6% | 7% | 25% | -19% | -14% | 42% | Activity (Mus musculus [10]): 40%; Activity (Mus musculus [11]): -3.5%; Activity (Mus musculus [12]): 17%; Activity (Mus musculus [13]): -6.3%; Activity (Mus musculus [14]): -10%; Activity (Mus musculus [15]): 2.1%; Activity (Mus musculus [16]): 6.5%; Activity (Mus musculus [17]): -12%; Activity (Mus musculus [18]): Dose-dependent effect; Activity (Mus musculus [19]): 14%; Activity (Mus musculus [20]): 17.1%; Activity (Mus musculus [21]): -16%; Activity (Mus musculus [22]): 25% |
